US20240100125A1 (ENYO PHARMA, priority 2021, published 2024)

Key:
HBV [1] = assay: 4-week treatment course in HBV chronically infected patients: HBV replication markers (pgRNA, HBcrAg, HBsAg); type: in vivo, human
[2] = system: HBV infected primary human hepatocytes (PHH); assay: HBV replication in infected primary human hepatocytes (PHH), FXR agonist +/- IFN-alpha; type: cell-based; settings: treated day 4 to 10 post-infection, harvested day 10, GW4064 1 or 10 uM, IFN-alpha 100 IU/mL
Experimental: FIG. 3. […] Freshly prepared and seeded PHH were infected with HBV at a multiplicity of infection of 250 GE/cell. From day 4 to 10 post-infection, cells were treated with […], +/−IFN-alpha at 100 IU/mL, or vehicle (NT), or IFN-alpha at 100 IU/mL alone. Cells and supernatants were harvested at day 10 for intracellular HBV RNA, viremia, and secreted antigens (HBsAg and HBeAg) quantification. Results are the mean+/−SD of one experiment performed with three biological replicates.
FIG. 4. […] Freshly prepared and seeded PHH were infected with HBV at a multiplicity of infection of 250 GE/cell. From day 4 to 10 post-infection, cells were treated with Vonafexor at 10 uM, or Nidufexor at 10 uM, or Tropifexor at 1 uM, or OCA at 10 uM, or GW4064 at 10 uM, +/−IFN-alpha (IFN) at 100 IU/mL, or vehicle, or IFN-alpha at 100 IU/mL alone. Supernatants were harvested at day 10 for secreted HBs antigen (HBsAg) quantification. Results are the mean+/−SEM of five experiments performed with three replicates.
Supernatants containing HBV particles were clarified (0.45 μm filter) and concentrated with 8% PEG 8000 (Sigma-Aldrich).
HBV DNA was quantified using the AmpliPrep/COBAS® TaqMan® HBV Test (Roche).
HBs and HBe antigens secreted in cells supernatant were quantified, after required dilutions, with Autobio kits (AutoBio, China) according to manufacturer's protocol.
Total RNA was prepared using NucleoSpin RNA Plus (Macherey-Nagel). After DNA digestion with TURBO DNase (Ambion), maximum 1000 ng RNA were reverse-transcribed using High-Capacity RNA-to-cDNA kit (Thermo Fisher Scientific). […] All assays were performed in triplicate.
HBs antigen secreted in cells supernatant were quantified, after required dilutions, with Autobio kits (AutoBio, China) according to manufacturer's protocol.
PHH are naturally susceptible to infection with HBV virions produced in vitro, leading to very high levels of replication of the virus.

HBV [3] = settings: chronic hepatitis B patients; cited from earlier work
FXR = FXR engagement markers (C4, FGF19) in HBV chronically infected patients; type: in vivo, human; settings: all EYP001 doses; data not shown
[4] = Pruritus under EYP001 once a day versus twice a day in combined treatment with IFN-α; type: in vivo, human; settings: EYP001 once a day rather than twice a day
Experimental: Therefore, in a particular aspect, the FXR agonist is administered once a day.

[5] = change from baseline at end of 4-week treatment (day 29), ETV open-label 0.5 mg/day
[6] = change from baseline at day 29, EYP001a 1 × 100 mg/day oral monotherapy
[7] = change from baseline at day 29, EYP001a 1 × 200 mg/day oral monotherapy
[8] = change from baseline at day 29, EYP001a 1 × 400 mg/day oral monotherapy
[9] = change from baseline at day 29, EYP001a 2 × 200 mg/day oral monotherapy

C=C1[C@H](CO)[C@@H](O)C[C@@H]1n1cnc2c(=O)[nH]c(N)nc21 [ETV, entecavir, reference compound]
HBVpgRNA Mean (HBV [1]; [5]): −0.3 Log10 Copies mL | HBcrAg Mean (HBV [1]; [5]): 0.03 Log10 IU mL

CC(C)c1onc(-c2c(Cl)cccc2Cl)c1COc1ccc(/C=C/c2cccc(C(=O)O)c2)c(Cl)c1 [GW4064, 3-[2-[2-Chloro-4-[[3-(2,6-dichlorophenyl)-5-(1-methylethyl)-4-isoxazolyl]methoxy]phenyl]ethenyl]benzoic acid]
HBeAg secretion [2]: reduce in a dose response manner | HBsAg secretion [2]: unable to significantly impact | intracellular HBV RNA level [2]: reduce in a dose response manner | viremia [2]: unable to significantly impact

O=C(O)c1cc2c(Cl)c(N3CCN(S(=O)(=O)c4c(Cl)cccc4Cl)CC3)ccc2o1 [EYP001a]
HBV viral load (HBV [3]): reduces HBV viral load | C4 (FXR): decreases | FGF19 (FXR): increases | HBVpgRNA Mean (HBV [1]; [6]): 0.5 Log10 Copies mL | HBcrAg Mean (HBV [1]; [6]): −0.3 Log10 IU mL | HBVpgRNA Mean (HBV [1]; [7]): 0.4 Log10 Copies mL | HBcrAg Mean (HBV [1]; [7]): 0.2 Log10 IU mL | HBVpgRNA Mean (HBV [1]; [8]): 0.2 Log10 Copies mL | HBcrAg Mean (HBV [1]; [8]): 0.02 Log10 IU mL | HBVpgRNA Mean (HBV [1]; [9]): −0.1 Log10 Copies mL | HBcrAg Mean (HBV [1]; [9]): 1.2 Log10 IU mL | mean HBsAg decrease (HBV [1]; end of treatment on day 29, 400 mg QD EYP001, p<0.05): −0.1 log 10 IU/mL | pruritus [4]: fewer pruritus
